Reference: patent US20230000842A1, “METHODS OF TREATING CARTILAGE DISORDERS THROUGH INHIBITION OF CLK AND DYRK” (SAMUMED, LLC, priority 2019, published 2023)

Legend:
[1] = system: primary human mesenchymal stem cells (hMSCs); test: Chondrogenesis screening using primary human mesenchymal stem cells; format: cell-based; settings: Homo sapiens, Mesenchymal stem cells, hMSC chondrogenesis; for Emax: maximum activity relative to TGF-β3 (10 ng/mL) positive control, read-out: Max. Activity as % TGF-β3 activity; for EC50: concentration required to induce 50% levels of chondrogenesis with TGF-β3 as positive control, read-out: Conc (nM) of 50% TGF-β3 activity
In short: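 Primary hMSCs at passage 3–6 were treated across compound concentrations, with TGF-β3 as positive control. Chondrogenic nodule area per well was normalized to 3 DMSO wells on the same plate (fold over DMSO, 2–3 replicates). EC50, maximum activity and the dose reaching it were derived.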

CLK3 kinase = CLK3 kinase (Homo sapiens, UniProt P49761); test: CLK3 kinase activity assay (Z-lyte FRET); format: biochemical; settings: Z-lyte Ser/Thr 18 peptide, 156 μM ATP, 1 h at room temperature;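 note: kinase activity read as coumarin/fluorescein emission ratio by FRET, unphosphorylated peptide as 0% and phosphorylated peptide as 100% control, values from non-linear regression of dose-response curves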
Experimental: This is a non-radioactive assay using fluorescence resonance energy transfer (FRET) between coumarin and fluorescein to detect kinase activity which is represented as a ratio of coumarin emission/fluorescein emission.
The mixture was allowed to incubate with the representative compounds for one hour at room temperature. All reactions were performed in duplicate. Unphosphorylated (“0% Control”) and phosphorylated (“100% control”) forms of Ser/Thr 18 served as control reactions. Additionally, an 11-point dose-response curve of Staurosporine (1 μM top) was run to serve as a positive compound control.
After incubation, Development Reagent A was diluted in Development Buffer then added to the reaction and allowed to further incubate for one hour at room temperature.
Dose-response curves were generated and inhibitory concentration (IC50) values were calculated using non-linear regression curve fit in the Dotmatics' Studies Software (Bishops Stortford, UK).

CLK2 kinase = CLK2 kinase (Homo sapiens, UniProt P49760); test: CLK2 kinase activity assay (Z-lyte FRET); format: biochemical; settings: Z-lyte Ser/Thr 6 peptide, 60 μM ATP, 1 h at room temperature;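 note: FRET read-out as coumarin to fluorescein emission ratio, unphosphorylated peptide as 0% and phosphorylated peptide as 100% controls, duplicate reactions, non-linear regression fit of dose-response curves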
[2] = system: Wnt pathway activity (SW480 colon carcinoma cells stably expressing the Sp5-Luc reporter); test: Wnt pathway activity screening assay (Sp5-Luc reporter gene assay); settings: Homo sapiens, SW480, Table 4; SW480 cells stably expressing Sp5-Luc reporter, 10-point dose-response from 10 μM, 36 to 48 hours

Chain of CLK3 kinase (P49761 whole entry): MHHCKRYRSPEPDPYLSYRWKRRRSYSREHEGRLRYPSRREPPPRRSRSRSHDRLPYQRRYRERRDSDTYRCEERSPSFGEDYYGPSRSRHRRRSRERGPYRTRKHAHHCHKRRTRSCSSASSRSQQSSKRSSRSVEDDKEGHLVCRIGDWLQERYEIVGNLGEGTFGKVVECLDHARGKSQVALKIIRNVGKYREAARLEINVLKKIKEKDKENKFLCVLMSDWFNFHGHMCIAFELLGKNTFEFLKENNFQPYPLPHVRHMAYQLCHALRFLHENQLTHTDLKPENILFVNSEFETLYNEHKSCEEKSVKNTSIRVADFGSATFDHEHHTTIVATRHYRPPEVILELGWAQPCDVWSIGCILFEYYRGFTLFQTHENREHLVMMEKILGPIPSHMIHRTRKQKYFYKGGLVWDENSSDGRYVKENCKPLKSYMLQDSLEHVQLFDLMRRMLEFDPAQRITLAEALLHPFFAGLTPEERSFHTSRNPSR
Chain of CLK2 kinase (P49760 whole entry): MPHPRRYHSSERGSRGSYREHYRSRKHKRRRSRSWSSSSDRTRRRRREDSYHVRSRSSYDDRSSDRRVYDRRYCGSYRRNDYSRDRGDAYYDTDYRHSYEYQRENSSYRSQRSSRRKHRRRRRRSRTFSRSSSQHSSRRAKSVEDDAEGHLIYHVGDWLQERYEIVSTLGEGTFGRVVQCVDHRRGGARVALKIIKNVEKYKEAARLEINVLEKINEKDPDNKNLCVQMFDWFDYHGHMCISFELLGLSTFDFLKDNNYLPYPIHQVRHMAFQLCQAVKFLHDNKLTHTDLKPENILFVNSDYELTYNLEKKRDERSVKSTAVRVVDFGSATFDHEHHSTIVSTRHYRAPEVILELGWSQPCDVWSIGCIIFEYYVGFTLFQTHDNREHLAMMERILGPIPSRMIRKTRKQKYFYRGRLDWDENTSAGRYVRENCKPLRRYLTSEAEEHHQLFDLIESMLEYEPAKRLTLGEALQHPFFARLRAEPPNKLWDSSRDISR

| EC50 (CLK3 kinase) | EC50 (CLK2 kinase) | EC50 [2] | EC50 [1] | SMILES | Emax [1] |
| --- | --- | --- | --- | --- | --- |
| 962 nM | 6 nM | 100 nM | 10 nM | CC(C)Nc1cncc(-c2ccc3[nH]nc(-c4cc5c(-c6cccnc6)cccc5[nH]4)c3c2)c1 [compound 359] | 226% |
| 330 nM | 4 nM | 670 nM |  | CC(C)Nc1cncc(-c2ccc3[nH]nc(-c4cc5c(-c6cccnc6)cncc5[nH]4)c3c2)c1 [compound 360] | 41.9% |
| 164 nM | 5 nM | > 10000 nM |  | CC(C)Nc1cncc(-c2ccc3[nH]nc(-c4cc5c(-c6cccnc6)ccnc5[nH]4)c3c2)c1 [compound 361] | 45.5% |
| 292 nM | 4 nM | > 10000 nM | 10 nM | CC(C)Nc1cncc(-c2cnc3[nH]nc(-c4cc5c(-c6cccnc6)ccnc5[nH]4)c3c2)c1 [compound 362] | 135% |
| 50 nM | 2 nM | > 10000 nM | 30 nM | Nc1cncc(-c2cnc3[nH]nc(-c4cc5c(-c6ccncc6)nccc5[nH]4)c3c2)c1 [compound 378] | 53.5% |
| 69 nM | 4 nM | > 10000 nM |  | Nc1cncc(-c2cnc3[nH]nc(-c4cc5c(-c6ccncc6)cncc5[nH]4)c3c2)c1 [compound 379] | 31.5% |
| 46 nM | 3 nM | > 10000 nM |  | CCCC(=O)Nc1cncc(-c2ccc3[nH]nc(-c4cc5c(-c6ccncc6)cncc5[nH]4)c3c2)c1 [compound 383] | 124% |
| 389 nM | 12 nM | > 10000 nM |  | CC(C)C(=O)Nc1cncc(-c2cc3c(-c4cc5c(-c6ccncc6)nccc5[nH]4)n[nH]c3cn2)c1 [compound 385] | 32.1% |
| 201 nM | 8 nM | > 10000 nM |  | CCCCC(=O)Nc1cncc(-c2cnc3[nH]nc(-c4cc5c(-c6ccncc6)cncc5[nH]4)c3c2)c1 [compound 386] | 70.4% |
| 132 nM | 5 nM | > 10000 nM |  | CC(C)CC(=O)Nc1cncc(-c2ccc3[nH]nc(-c4cc5c(-c6ccncc6)nccc5[nH]4)c3c2)c1 [compound 387] | 95.5% |
| 29 nM | 4 nM | 875 nM |  | CC(C)CC(=O)Nc1cncc(-c2ccc3[nH]nc(-c4cc5c(-c6ccncc6)cncc5[nH]4)c3c2)c1 [compound 388] | 70.2% |
| 9910 nM | 9 nM | 711 nM | 30 nM | CC(C)CC(=O)Nc1cncc(-c2cnc3[nH]nc(-c4cc5c(-c6ccncc6)cccc5[nH]4)c3c2)c1 [compound 389] | 71.4% |
| 137 nM | 11 nM | > 10000 nM |  | CC(C)(C)C(=O)Nc1cncc(-c2ccc3[nH]nc(-c4cc5c(-c6ccncc6)ccnc5[nH]4)c3c2)c1 [compound 390] | 44.4% |
| 62 nM | 4 nM | > 10000 nM |  | CC(C)(C)C(=O)Nc1cncc(-c2cnc3[nH]nc(-c4cc5c(-c6ccncc6)cncc5[nH]4)c3c2)c1 [compound 391] | 33.6% |
| 92 nM | 9 nM | > 10000 nM |  | CC(C)(C)C(=O)Nc1cncc(-c2cc3c(-c4cc5c(-c6ccncc6)cncc5[nH]4)n[nH]c3cn2)c1 [compound 392] | 30.4% |
| 895 nM | 15 nM | 708 nM |  | FC1(F)CCN(Cc2cncc(-c3cnc4[nH]nc(-c5cc6c(-c7ccncc7)cccc6[nH]5)c4c3)c2)C1 [compound 401] | 29.2% |
| 227 nM | 3 nM | > 10000 nM |  | Cc1ncc(-c2cnc3[nH]nc(-c4cc5c(-c6ccncc6)cncc5[nH]4)c3c2)n1C [compound 406] | 194% |

More lines, now with the values behind:

| SMILES | EC50 (CLK3 kinase) | EC50 (CLK2 kinase) | EC50 [2] | EC50 [1] | Emax [1] |
| --- | --- | --- | --- | --- | --- |
| O=C(Nc1cncc(-c2ccc3[nH]nc(-c4cc5c(-c6cccnc6)cncc5[nH]4)c3c2)c1)c1ccccc1 [compound 358] | 71 nM | 7 nM | > 10000 nM |  | 68.5% |
| CC(C)Nc1cncc(-c2cc3c(-c4cc5c(-c6cccnc6)ccnc5[nH]4)n[nH]c3cn2)c1 [compound 363] | 9840 nM | 8 nM | > 10000 nM | 10 nM | 77% |
| CC(C)Nc1cncc(-c2ccc3[nH]nc(-c4cc5c(-c6cccnc6)ccnc5[nH]4)c3n2)c1 [compound 364] | 139 nM | 10 nM | 255 nM |  | 47.2% |
| CCNCc1cncc(-c2ccc3[nH]nc(-c4cc5c(-c6cccnc6)ccnc5[nH]4)c3c2)c1 [compound 365] | 443 nM | 13 nM | > 10000 nM |  | 28.7% |
| CCNCc1cncc(-c2cnc3[nH]nc(-c4cc5c(-c6cccnc6)ccnc5[nH]4)c3c2)c1 [compound 366] | 74 nM | 4 nM | > 10000 nM | 10 nM | 91.8% |
| CN(C)Cc1cncc(-c2ccc3[nH]nc(-c4cc5c(-c6cccnc6)cccc5[nH]4)c3n2)c1 [compound 368] | 102 nM | 4 nM | 415 nM |  | 35.9% |
| c1cncc(-c2ccnc3[nH]c(-c4n[nH]c5cnc(-c6cncc(CN7CCCC7)c6)cc45)cc23)c1 [compound 369] | 102 nM | 9 nM | > 10000 nM |  | 16.7% |
| FC1(F)CCN(Cc2cncc(-c3ccc4[nH]nc(-c5cc6c(-c7cccnc7)ccnc6[nH]5)c4c3)c2)C1 [compound 370] | 101 nM | 6 nM | 523 nM |  | 20.3% |
| FC1(F)CCN(Cc2cncc(-c3ccc4[nH]nc(-c5cc6c(-c7cccnc7)cncc6[nH]5)c4n3)c2)C1 [compound 371] | 408 nM | 11 nM | 3850 nM |  | 23.3% |
| c1cncc(-c2ccnc3[nH]c(-c4n[nH]c5ncc(-c6cncc(CN7CCCCC7)c6)cc45)cc23)c1 [compound 372] | 69 nM | 2 nM | > 10000 nM |  | 43.9% |
| c1cncc(-c2cncc3[nH]c(-c4n[nH]c5ncc(-c6cncnc6)cc45)cc23)c1 [compound 373] | 156 nM | 4 nM | > 10000 nM |  | 24.1% |
| c1cncc(-c2ccnc3[nH]c(-c4n[nH]c5cnc(-c6cncnc6)cc45)cc23)c1 [compound 374] | 9840 nM | 19 nM | > 10000 nM |  | 49.6% |
| Cn1cc(-c2ccc3[nH]nc(-c4cc5c(-c6cccnc6)cncc5[nH]4)c3c2)cn1 [compound 375] | 100 nM | 6 nM | 250 nM |  | 65.2% |
| Nc1cncc(-c2ccc3[nH]nc(-c4cc5c(-c6ccncc6)nccc5[nH]4)c3c2)c1 [compound 377] | 113 nM | 7 nM | 658 nM |  | 76.8% |
| Nc1cncc(-c2ccc3[nH]nc(-c4cc5c(-c6ccncc6)ccnc5[nH]4)c3n2)c1 [compound 382] | 63 nM | 4 nM | > 10000 nM |  | 26.9% |
| O=C(Nc1cncc(-c2ccc3[nH]nc(-c4cc5c(-c6ccncc6)nccc5[nH]4)c3c2)c1)C1CCCC1 [compound 395] | 30 nM | 5 nM | > 10000 nM |  | 114% |
| CN(C)Cc1cncc(-c2ccc3[nH]nc(-c4cc5c(-c6ccncc6)cncc5[nH]4)c3c2)c1 [compound 398] | 56 nM | 3 nM | 1060 nM |  | 17.8% |
| CN(C)Cc1cncc(-c2cc3c(-c4cc5c(-c6ccncc6)cncc5[nH]4)n[nH]c3cn2)c1 [compound 399] | 188 nM | 4 nM | > 10000 nM | 30 nM | 51.7% |
| CN(C)Cc1cncc(-c2cc3c(-c4cc5c(-c6ccncc6)ccnc5[nH]4)n[nH]c3cn2)c1 [compound 400] | 180 nM | 12 nM | > 10000 nM |  | 33.4% |
| FC1(F)CCN(Cc2cncc(-c3cnc4[nH]nc(-c5cc6c(-c7ccncc7)cncc6[nH]5)c4c3)c2)C1 [compound 402] | 110 nM | 5 nM | 1510 nM |  | 36.5% |
| c1cc(-c2cncc3[nH]c(-c4n[nH]c5ccc(-c6cncc(CN7CCCCC7)c6)nc45)cc23)ccn1 [compound 403] | 306 nM | 6 nM | > 10000 nM | 10 nM | 97.1% |
| Nc1cncc(-c2ccc3[nH]nc(-c4cc5c(-c6ccccn6)ccnc5[nH]4)c3c2)c1 [compound 407] | 19 nM | 3 nM | 22.4 nM |  | 46.1% |
| O=C(CC1CCNCC1)Nc1cncc(-c2ccc3[nH]nc(-c4cc5c(-c6ccccn6)cccc5[nH]4)c3n2)c1 [compound 408] | 32 nM | 2 nM | 1440 nM |  | 8.03% |
| FC1(F)CCN(Cc2cncc(-c3ccc4[nH]nc(-c5cc6c(-c7ccccn7)cccc6[nH]5)c4n3)c2)C1 [compound 409] | 142 nM | 5 nM | 432 nM | 10 nM | 81.9% |
